Measured values as given in ChEMBL document CHEMBL1144631, “Synthesis and biological evaluation of nucleoside analogues having 6-chloropurine as anti-SARS-CoV agents” (Bioorg Med Chem Lett, 2007).
pIC50: −log10 of the molar value. Activity calls are given as the source filed them. The rule behind the calls is not given here.

Tests used:
SARS-CoV [1] = test: microbe, parasite or virus in culture; settings: Severe acute respiratory syndrome-related coronavirus, Frankfurt1, Vero
SARS-CoV [2] = type: functional, organism-based; settings: Severe acute respiratory syndrome-related coronavirus; Frankfurt1; Vero; 20 uM
Vero = settings: chlorocebus sabaeus
in vitro = settings: chlorocebus sabaeus, Vero E6 cells
SARS-CoV [3] = type: functional, organism-based; settings: Severe acute respiratory syndrome-related coronavirus; Frankfurt1; Vero; 50 to 70 uM

Row | SMILES | pIC50 (SARS-CoV [1]) | CC50 (in vitro) | further results
1 | COc1ncnc2c1ncn2[C@@H]1O[C@H](CO)[C@@H](O)[C@H]1O | < 3.52 |  | 
2 | Nc1nc(Cl)c2ncn([C@@H]3O[C@H](CO)[C@@H](O)[C@H]3O)c2n1 | < 3.52 |  | 
3 | OCC(CCn1cnc2c(Cl)ncnc21)COCc1ccccc1 (stereo not given) | < 3.52 |  | 
4 | OC[C@H]1O[C@@H](n2cnc3c(Cl)ncnc32)[C@H](O)[C@@H]1O |  |  | Activity (SARS-CoV [2]): Active; CC50 (Vero): 279 µM
5 | NC(=O)c1ncn([C@@H]2O[C@H](CO)[C@@H](O)[C@H]2O)c1O [MIZORIBINE] | 4.87 | > 700 µM | 
6 | OC[C@H]1O[C@@H](n2cnc3c(Cl)ncnc32)C[C@@H]1O | < 3.52 |  | 
7 | O[C@@H]1[C@H](O)[C@@H](COCc2ccccc2)O[C@H]1n1cnc2c(Cl)ncnc21 | 3.97 | 174 µM | Activity (SARS-CoV [3]): Active
8 | OCC(CO)CCn1cnc2c(Cl)ncnc21 | < 3.52 |  | 
9 | OC[C@@H]1C[C@@H](O)[C@H](n2cnc3c(Cl)ncnc32)O1 | < 3.52 |  | 
10 | CSc1ncnc2c1ncn2[C@@H]1O[C@H](CO)[C@@H](O)[C@H]1O | < 3.52 |  | 
11 | NC(=O)c1ncn([C@@H]2O[C@H](CO)[C@@H](O)[C@H]2O)n1 [RIBAVIRIN] | 4.09 | > 850 µM | 
12 | OCC1CC(n2cnc3c(Cl)ncnc32)C1CO (stereo not given) | < 3.52 |  | 
13 | OCC1C(COCc2ccccc2)CC1n1cnc2c(Cl)ncnc21 (stereo not given) | 4.84 | 78 µM | Activity (SARS-CoV [3]): Active
